These results are taken from PubChem BioAssay AID330 (DTP/NCI, 2004).

“And” between values parts separate entries of the source, which are not always exact repeats. Equal values may be shown once. Toxic doses and inconclusive results are not listed. Square brackets hold non-standard residues; d marks the D form. Peptide text beside a SMILES is read from it. Hpg = N[CH](C(=O)O)c1ccc(O)cc1

For this experiment, the system named is P388 leukemia ip, CD2F1 mice, survival T/C. Nature of the experiment: NCI In Vivo Anticancer Drug Screen. Data for tumor model P388 Leukemia (intraperitoneal) in CD2F1 (CDF1) mice. Particulars: endpoint: median survival time, higher = longer survival. Put shortly:
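Mice carrying the transplanted tumor received test compound or vehicle. Survival was recorded in each group, and the value is the treated-group measurement divided by that of the vehicle-treated control group.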

Where [1] appears, read: dose: 50.0 mg/kg/injection, schedule: Q01DX009 (ip), vehicle: saline.
The mark [2] stands for this setting: dose: 100.0 mg/kg/injection, schedule: Q01DX009 (ip), vehicle: saline.
Where [3] appears, read: dose: 200.0 mg/kg/injection, schedule: Q01DX009 (ip), vehicle: saline.
Where [4] appears, read: dose: 6.25 mg/kg/injection, schedule: Q01DX009 (ip), vehicle: saline with Tween-80.
[5] abbreviates: dose: 12.5 mg/kg/injection, schedule: Q01DX009 (ip), vehicle: saline with Tween-80.
Where [6] appears, read: dose: 25.0 mg/kg/injection, schedule: Q01DX009 (ip), vehicle: saline with Tween-80.
The mark [7] stands for this setting: dose: 60.0 mg/kg/injection, schedule: Q01DX005 (ip), vehicle: Klucel (hydroxypropylcellulose) (HPC).
Setting [8] is: dose: 120.0 mg/kg/injection, schedule: Q01DX005 (ip), vehicle: Klucel (hydroxypropylcellulose) (HPC).
The mark [9] stands for this setting: dose: 240.0 mg/kg/injection, schedule: Q01DX005 (ip), vehicle: Klucel (hydroxypropylcellulose) (HPC).
Setting [10] is: dose: 60.0 mg/kg/injection, schedule: Q01DX005 (ip), vehicle: saline.
Where [11] appears, read: dose: 120.0 mg/kg/injection, schedule: Q01DX005 (ip), vehicle: saline.
The mark [12] stands for this setting: dose: 50.0 mg/kg/injection, schedule: Q01DX005 (ip), vehicle: saline with Tween-80.
Setting [13] is: dose: 100.0 mg/kg/injection, schedule: Q01DX005 (ip), vehicle: saline with Tween-80.
The mark [14] stands for this setting: dose: 200.0 mg/kg/injection, schedule: Q01DX005 (ip), vehicle: saline with Tween-80.

`CCC(=O)N(C)[C@@H](C)C(=O)O[C@H]1CC(=O)N(C)c2cc(cc(OC)c2Cl)C/C(C)=C/C=C[C@@H](OC)[C@@]2(O)C[C@H](OC(=O)N2)[C@@H](C)[C@@H]2O[C@@]12C`: the T/C is 105 % of control (dose: 0.1 micrograms/kg/injection, schedule: Q01DX009 (ip), vehicle: saline); 123 % of control (dose: 0.2 micrograms/kg/injection, schedule: Q01DX009 (ip), vehicle: saline); 160 % of control (dose: 3.1 micrograms/kg/injection, schedule: Q01DX009 (ip), vehicle: saline + alcohol); 150 % of control (dose: 3.1 micrograms/kg/injection, schedule: Q01DX009 (ip), vehicle: saline); 151 % of control (dose: 6.3 micrograms/kg/injection, schedule: Q01DX009 (ip), vehicle: saline + alcohol); 161 % of control (dose: 6.3 micrograms/kg/injection, schedule: Q01DX009 (ip), vehicle: saline).

Consider `CC(C)CC(N)C(=O)NC(C(N)=O)c1ccc(O)cc1` (centres undefined) (H-Leu-[Hpg]-NH2; configuration not given here), for which the T/C is, setting by setting: under setting [1], 101 % of control; under setting [2], 92 % of control; under setting [3], 88 % of control.

Consider `CCN(CC)CN1C(=O)CC2(C1=O)c1ccccc1-c1ccccc12`, for which the T/C (dose: 100.0 mg/kg/injection, schedule: Q01DX001 (ip), vehicle: water) is 109 % of control; the T/C (dose: 200.0 mg/kg/injection, schedule: Q01DX001 (ip), vehicle: water) was 106 % of control; the T/C (dose: 400.0 mg/kg/injection, schedule: Q01DX001 (ip), vehicle: water) is 110 % of control.

Consider `COc1cc(/C=N/OC(=O)Nc2ccccc2)cc(OC)c1OC`, for which the T/C runs as follows: under setting [4], 96 % of control; under setting [5], 91 % of control; under setting [6], 91 % of control.

For `CC(C)(C)N=NNc1ccc(C#N)cc1`, the T/C by setting is: (dose: 100.0 mg/kg/injection, schedule: Q04DX002 (ip), vehicle: saline with Tween-80) 87 % of control; (dose: 200.0 mg/kg/injection, schedule: Q04DX002 (ip), vehicle: saline with Tween-80) 88 % of control; (dose: 400.0 mg/kg/injection, schedule: Q04DX002 (ip), vehicle: saline with Tween-80) 88 % of control.

Regarding `c1ccc(C2=NC3CCCCC3N=C2c2ccccc2)cc1` (centres undefined), the T/C by setting is: (dose: 100.0 mg/kg/injection, schedule: Q01DX009 (ip), vehicle: saline with Tween-80) 100 % of control; (dose: 200.0 mg/kg/injection, schedule: Q01DX009 (ip), vehicle: saline with Tween-80) 100 % of control; (dose: 400.0 mg/kg/injection, schedule: Q01DX009 (ip), vehicle: saline with Tween-80) 100 % of control.

Take `C[n+]1c2n(c3ccccc31)CCn1c-2[n+](C)c2ccccc21`: the T/C (dose: 12.5 mg/kg/injection, schedule: Q01DX009 (ip), vehicle: Klucel (hydroxypropylcellulose) (HPC)) is 100 % of control and 103 % of control and 117 % of control; the T/C (dose: 25.0 mg/kg/injection, schedule: Q01DX009 (ip), vehicle: Klucel (hydroxypropylcellulose) (HPC)) is 102 % of control and 103 % of control (2×); the T/C (dose: 50.0 mg/kg/injection, schedule: Q01DX009 (ip), vehicle: Klucel (hydroxypropylcellulose) (HPC)) was 100 % of control and 120 % of control and 96 % of control.

On to `CCOC(=O)CCC(=O)Oc1cccc2c1C(=O)c1c(OC(=O)CCC(=O)OCC)cccc1C2=O`, for which the T/C under setting [7] is 91 % of control, the T/C under setting [8] was 97 % of control and the T/C under setting [9] is 91 % of control.

For the molecule `C1=CC(Cc2ccccc2)NC1` (centres undefined), the T/C runs as follows: (dose: 100.0 mg/kg/injection, schedule: Q01DX001 (ip), vehicle: distilled water + alcohol) 100 % of control; (dose: 200.0 mg/kg/injection, schedule: Q01DX001 (ip), vehicle: distilled water + alcohol) 100 % of control.

Take `CN(CCOc1ccccc1)Cc1ccccc1`: the T/C is 97 % of control under setting [7], 104 % of control under setting [8] and 105 % of control under setting [9].

Regarding `Cc1cc(OC(=O)c2c(C)cc(O)cc2O)cc(O)c1C(=O)O`, the T/C was 101 % of control (dose: 0.25 mg/kg/injection, schedule: Q01DX009 (ip), vehicle: saline with Tween-80); 102 % of control (dose: 0.5 mg/kg/injection, schedule: Q01DX009 (ip), vehicle: saline with Tween-80); 101 % of control (dose: 1.0 mg/kg/injection, schedule: Q01DX009 (ip), vehicle: saline with Tween-80).

`CCCC(=O)Nc1cc2c3c(c1)CCCN3CCC2`: the T/C reads like this: under setting [5], 100 % of control; under setting [6], 95 % of control.

As for `COC(C(=O)O)(c1ccccc1)C(F)(F)F` (centres undefined), the T/C runs as follows: under setting [10], 100 % of control; under setting [11], 109 % of control.

Consider `CC1=NOC(=O)/C1=C/c1ccc(Cl)c(Cl)c1`, for which the T/C was 112 % of control under setting [12] and 114 % of control under setting [13].

For `CC1(C)OC2OC(COC(=O)c3ccccc3)C(=O)C2O1` (centres undefined), the T/C is 95 % of control (dose: 3.13 mg/kg/injection, schedule: Q01DX009 (ip), vehicle: saline with Tween-80); 93 % of control under setting [4]; 89 % of control under setting [5].

Regarding `COC1=CC(=Nc2ccc(N(C)C)cc2)C=CC1=O`, the T/C is 106 % of control (dose: 3.12 mg/kg/injection, schedule: Q01DX005 (ip), vehicle: saline); 109 % of control (dose: 6.25 mg/kg/injection, schedule: Q01DX005 (ip), vehicle: saline); 106 % of control (dose: 12.5 mg/kg/injection, schedule: Q01DX005 (ip), vehicle: saline).

On to `Nc1nnn(-c2ccccc2)n1`, for which the T/C is, setting by setting: (dose: 100.0 mg/kg/injection, schedule: Q01DX001 (ip), vehicle: Klucel (hydroxypropylcellulose) (HPC)) 102 % of control; (dose: 200.0 mg/kg/injection, schedule: Q01DX001 (ip), vehicle: Klucel (hydroxypropylcellulose) (HPC)) 101 % of control; (dose: 400.0 mg/kg/injection, schedule: Q01DX001 (ip), vehicle: Klucel (hydroxypropylcellulose) (HPC)) 102 % of control.

Consider `O=c1c2[nH]c3ccccc3sc=2c(=O)n1-c1ccccc1Cl`, for which the T/C by setting is: under setting [12], 98 % of control; (dose: 120.0 mg/kg/injection, schedule: Q01DX005 (ip), vehicle: saline with Tween-80) 98 % of control; under setting [14], 97 % of control.

Regarding `CN=C(NCCCOC)c1ccc(NC(=O)c2ccc(C(=O)Nc3ccc(C(=NC)NCCCOC)cc3)cc2)cc1`, the T/C was 118 % of control (dose: 5.0 mg/kg/injection, schedule: Q01DX009 (ip), vehicle: saline); 100 % of control (dose: 5.0 mg/kg/injection, schedule: Q04DX003 (ip), vehicle: saline); 122 % of control (dose: 10.0 mg/kg/injection, schedule: Q01DX009 (ip), vehicle: saline); 100 % of control (dose: 10.0 mg/kg/injection, schedule: Q04DX003 (ip), vehicle: saline); 90 % of control (dose: 20.0 mg/kg/injection, schedule: Q01DX009 (ip), vehicle: saline); 95 % of control (dose: 20.0 mg/kg/injection, schedule: Q04DX003 (ip), vehicle: saline).

As to `Cc1ccc(N)c2ccccc12`, the T/C is 117 % of control under setting [1] and 112 % of control under setting [2].

`Nn1cnc2[nH]ncc2c1=O`: the T/C was 99 % of control under setting [10]; 99 % of control under setting [11]; 105 % of control (dose: 240.0 mg/kg/injection, schedule: Q01DX005 (ip), vehicle: saline).

Regarding `O=C1Cc2ccccc2N1`, the T/C reads like this: under setting [1], 116 % of control; under setting [2], 107 % of control; under setting [3], 105 % of control.

For `CC(O)C(NC(=O)C(Cc1ccc(O)cc1)NC(=O)C(CCCCN)N(C(=O)OCc1ccccc1)C(=O)OCc1ccccc1)C(=O)OCc1ccccc1` (centres undefined), the T/C is, setting by setting: under setting [12], 94 % of control; under setting [13], 92 % of control; under setting [14], 93 % of control.

Turning to `CN(C)C1=NC(NC(C)(C)C)(N(C)C)OC(N(C)C)=N1` (centres undefined), the T/C by setting is: (dose: 25.0 mg/kg/injection, schedule: Q01DX005 (ip), vehicle: saline) 100 % of control; (dose: 50.0 mg/kg/injection, schedule: Q01DX005 (ip), vehicle: saline) 100 % of control; (dose: 100.0 mg/kg/injection, schedule: Q01DX005 (ip), vehicle: saline) 104 % of control.

For `COCN(C)N=Nc1ccc(Br)cc1`, the T/C under setting [12] was 95 % of control, the T/C under setting [13] is 103 % of control and the T/C under setting [14] is 102 % of control.

Turning to `CNC(=O)N(C)C(=O)c1ccncc1C(=O)N(C(=O)NC1CCCCC1)C1CCCCC1`, the T/C is 98 % of control under setting [12], 89 % of control under setting [13] and 89 % of control under setting [14].
